Tests used:
KARPAS-299 [1] = details: Homo sapiens
Description: Antitumor activity against human KARPAS299 cells xenografted in rat assessed as tumor growth inhibition

[2] = Oral bioavailability in rat; assay type: ADME, organism-based; details: in vivo
Canis familiaris = species on record: Canis familiaris; assay: Cardiotoxicity in dog assessed as QTc prolongation by telemetric analysis; assay type: toxicity, organism-based, Canis lupus familiaris; details: in vivo
Cytochrome P450 3A4 = Cytochrome P450 3A4 (Homo sapiens, UniProt P08684); assay: Inhibition of CYP3A4 (unknown origin); assay type: ADME
[3] = Cytotoxicity against mouse BA/F3 cells expressing NPM-ALK fusion gene assessed as growth inhibition; assay type: functional, cell-based; details: BaF3
[4] = Metabolic stability in liver microsomes (unknown origin); assay type: ADME, Microsome
Rhesus monkey = assay: Cardiotoxicity in monkey assessed as QTc prolongation by telemetric analysis; assay type: toxicity, organism-based, Macaca mulatta; details: in vivo
[5] = Cytotoxicity against mouse BA/F3 cells transfected with Tel-InsR gene assessed as growth inhibition; assay type: functional, cell-based; details: BaF3
Rattus norvegicus [6] = assay: Toxicity in rat xenografted with human NCI-H2228 cells expressing EML4-ALK fusion gene; assay type: organism-based; details: in vivo
KARPAS-299 [7] = assay: Cytotoxicity against human KARPAS299 cells expressing NPM-ALK fusion gene assessed as growth inhibition
[8] = Cytotoxicity against wild type mouse BA/F3 cells assessed as growth inhibition; assay type: functional, cell-based; details: BaF3
Rattus norvegicus [9] = assay: Toxicity in rat xenografted with human KARPAS299 cells; assay type: organism-based, KARPAS-299; details: in vivo

Cytochrome P450 3A4, sequence (P08684 whole entry, the tested form may be a part): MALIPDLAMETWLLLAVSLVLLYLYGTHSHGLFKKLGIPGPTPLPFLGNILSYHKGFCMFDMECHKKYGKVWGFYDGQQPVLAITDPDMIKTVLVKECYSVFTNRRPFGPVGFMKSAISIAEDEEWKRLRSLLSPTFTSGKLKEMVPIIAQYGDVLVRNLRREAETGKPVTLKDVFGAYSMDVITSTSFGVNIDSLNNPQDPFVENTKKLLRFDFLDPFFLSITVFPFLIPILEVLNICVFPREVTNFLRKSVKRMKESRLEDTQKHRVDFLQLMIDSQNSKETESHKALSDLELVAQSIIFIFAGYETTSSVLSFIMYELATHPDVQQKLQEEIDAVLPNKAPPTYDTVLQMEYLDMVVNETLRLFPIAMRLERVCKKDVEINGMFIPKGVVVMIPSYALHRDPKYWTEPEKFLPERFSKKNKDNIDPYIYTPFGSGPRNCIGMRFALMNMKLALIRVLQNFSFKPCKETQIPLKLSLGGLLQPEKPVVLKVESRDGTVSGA

bioavailability [2]: > 50% | inhibition (INH) (Cytochrome P450 3A4): Active | Stability [4]: Stable
Structure (SMILES): Cc1cc(Nc2ncc(Cl)c(Nc3ccccc3S(=O)(=O)C(C)C)n2)c(OC(C)C)cc1C1CCNCC1 [CERITINIB]
TGI (KARPAS-299 [1]): Dose-dependent effect | Activity (Canis familiaris): Non-toxic | IC50 [3]: 26 nM | Activity (Rhesus monkey): Non-toxic | IC50 [5]: 320 nM | Activity (Rattus norvegicus [6]): Non-toxic | IC50 (KARPAS-299 [7]): 22.8 nM | IC50 [8]: > 2000 nM | Activity (Rattus norvegicus [9]): Non-toxic

Reference: ChEMBL document CHEMBL2401656, “LDK378: a promising anaplastic lymphoma kinase (ALK) inhibitor” (J Med Chem, 2013)
